This passage reports IC50 results from PMC10762662, “An orally-available monovalent SMAC mimetic compound as a broad-spectrum antiviral” (Protein & Cell, 2023).

Experiment in all cases: BIR3 domain binding IC50 (assay format not stated)
One test concerns the target T1, cIAP1 (Homo sapiens, UniProt Q13490).
T1 construct: gene BIRC2; BIR3 domain

Another test deals with T2, cIAP2 (Homo sapiens, UniProt Q13489).
T2 construct: gene BIRC3; BIR3 domain

The target of the next test is T3, XIAP (Homo sapiens, UniProt P98170).
T3 construct: BIR3 domain
T3 sequence (P98170 241-356 limits assumed): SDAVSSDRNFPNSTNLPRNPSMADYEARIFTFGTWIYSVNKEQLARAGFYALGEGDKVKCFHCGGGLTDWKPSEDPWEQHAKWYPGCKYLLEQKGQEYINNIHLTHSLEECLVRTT

T2 sequence (Q13489 250-317 limits assumed): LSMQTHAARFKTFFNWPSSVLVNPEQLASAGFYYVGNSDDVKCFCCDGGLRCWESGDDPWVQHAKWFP
T1 sequence (Q13490 264-331 limits assumed): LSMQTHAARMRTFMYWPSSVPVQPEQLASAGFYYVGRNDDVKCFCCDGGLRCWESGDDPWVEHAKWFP

What is called IC50 is the concentration that inhibits the measured activity by half. Low values mean higher potency, high ones lower potency. Consider `CN[C@@H](C)C(=O)Nc1ccc(-c2c(C)nc3ccccn23)c(C#Cc2ccc3ncccc3c2)n1` [BI-82], for which the half-inhibitory concentration (IC50) turned out to be 0.0009 ± 0.00015 µM at cIAP1, 0.0171 ± 0.00537 µM on cIAP2 and 0.273 ± 0.0825 µM on XIAP.
